Results: patent publication US12023388B2, “Detection and treatment of caries and microcavities with nanoparticles” (THE REGENTS OF THE UNIVERSITY OF MICHIGAN, priority 2015, dated 2024)

Assay: Cavity diagnosis testing under dental curing lamp with ImageJ image analysis
Parameters: species or system human
Source text: Extracted teeth are obtained from School of Dentistry, University of Michigan (human subjects exempt) and stored in 1% sodium azide before use. The teeth are painted with an acid resistant varnish leaving a 1 mm 2 enamel window on the buccal surface of the crowns of the teeth. […] At the completion of the demineralization, the teeth are rinsed with distilled H2O before subjected to caries activity test. Residual varnish is removed by washing in acetone.
Teeth are exposed to 20 microliters of sample for three minutes prior to rinsing in DI water. Rinsing is done initially for 10 seconds, and teeth are examined and photographed while illuminated with a standard dental curing lamp. Rinsing is continued for an additional 10 seconds, followed by imaging, and this is repeated for up to 5 minutes to determine “residence times” for each sample to optimize the exposure procedure.
After a 3 minute exposure followed by 20 seconds of rinsing, imaging is performed under the dental curing lamp.
Digital images are taken with a Nikon ABC camera and analyzed using ImageJ image analysis software. In particular, the “mean gray value” measurement tool is used to compare grayscale brightness between the carious lesion and the background tooth as a measurement of contrast. […]

FITC-dextran
retention in carious lesions on rinsing in DI water (controls: rinse times of more than 20 seconds, cationic StNP: up to five minutes): fully washed away | illumination of carious lesions (statistical analysis of percent intensity difference) (versus untreated teeth / background tooth): did not illuminate carious lesions
